Data from paper PMC6151740, “Pharmacokinetics, Tissue Distribution, and Elimination of Three Active Alkaloids in Rats after Oral Administration of the Effective Fraction of Alkaloids from Ramulus Mori, an Innovative Hypoglycemic Agent” (Molecules : A Journal of Synthetic Chemistry and Natural …, 2017).
Like-named read-outs stand apart in the source and are kept apart here.

How the values were obtained:
[1] = Excretion into urine, feces and bile in rats after oral SZ–A; assay type: in vivo; settings: rat, SZ–A 40 mg/kg p.o.
Method: Five rats were kept in the metabolic cages with free access to water and food 2 h post dose. Urine was collected before dosing and at 0–4, 4–8, 8–24, 24–36, and 36–48 h, and feces was simultaneously collected before dosing and at 0–24, 24–36, and 36–48 h after oral dosing of SZ–A (40 mg/kg). Feces samples were dried and grinded into powder, then homogenized with normal saline solution (1:9, w/v). Additionally, the bile duct of rats under ether anesthesia were cannulated with a PE-10 tube (Portex Ltd., Kent, UK). Bile was collected before dosing and at 0–1, 1–2, 2–4, 4–6, 6–10, 10–20, 20–24, 24–28, and 28–32 h following oral administration of SZ–A (40 mg/kg). All urine, feces, and bile samples were stored at −20 °C until LC-MS/MS analysis.

[2] = Plasma pharmacokinetic study in rats after oral and intravenous administration of SZ–A or purified DNJ; assay type: in vivo, rat; settings: for AUC(0-inf) / AUC(0-t) / Tmax / half-life / clearance / MRT last / MRT inf / Vd / Cmax / CLz: rat plasma, n = 5; for clearance: read-out: CLz (converted); for MRT last: read-out: MRT0–t; for MRT inf: read-out: MRT0–∞; for bioavailability: plasma, read-out: F (oral absolute bioavailability)
Method: The oral dosing solutions used for all animal studies were prepared by dissolving in water. Thirty rats weighed 250–270 g after acclimation were randomly divided into six groups of five animals each. For oral administration, rats were treated with SZ–A (40, 200, 1000 mg/kg) or purified DNJ (15 mg/kg) dissolve in water. Blood samples (about 0.25 mL) were collected via the postorbital venous plexus veins under ether anesthesia into heparinized polythene tubes before dosing and at 0.08, 0.17, 0.33, 0.50, 1, 2, 3, 4, 6, 8, 12, 24 and 36 h after drug administration. For intravenous dosing, rats were given SZ–A (4 mg/kg) or DNJ (1.5 mg/kg) dissolved in normal saline solution through the tail vein. Then blood samples were collected at 0.03, 0.08, 0.17, 0.33, 0.67, 1, 2, 4, 6, 8, 12, 24, and 36 h under similar conditions. Considering the physical limit of blood in rats, during the process of the pharmacokinetic experiment, each rat was received 0.25 mL of sterile isotonic saline at each time point after blood sampling for compensation of body fluid loss, and the blood loss was also corrected at a definite degree. Plasma was separated by centrifuging the blood samples at 1660× g for 5 min and stored at −20 °C until LC-MS/MS analysis. Data fitting and pharmacokinetic parameter estimates were carried out using non–compartmental analysis via WinNonlin Software (version 6.1, Pharsight Corporation, Mountain View, CA, USA). F was calculated according to the formula: F (%) = (AUC oral/AUC i.v.) × (dose i.v./dose oral) × 100.
The plasma, feces, urine, and bile samples (100 μL) were added to 1 μL of Tris aqueous solution (2 M), 10 μL of IS working solution (2 μg/mL), and 190 μL methanol–acetonitrile (25:75, v/v). The incubation supernatant samples (300 μL) were mixed with 1 μL Tris aqueous solution (2 M) and 10 μL of IS working solution (2 μg/mL). All mixtures were vortexed for 30 s followed by centrifugation at 18,880× g for 5 min, twice.
Briefly, the LC-MS/MS instrument consisted of a 1260 HPLC system (Agilent, Santa Clara, CA, USA) and API4000 triple quadrupole mass spectrometer (Applied Biosystems Sciex, Toronto, ON, Canada) with an electrospray ionization (ESI) source and Analyst software (version 1.5.2, Applied Biosystems Sciex, Toronto, ON, Canada) for data acquisition and processing. DNJ, FGM, DAB, and IS were separated in a Xbridge amide™ column (3.5 μm, 4.6 mm × 150 mm; Waters, Milford, MA, USA) with a gradient mobile phase of acetonitrile-water (0.1% ammonium hydroxide) at a flow rate of 0.7 mL/min. An ESI source was used in the positive ion mode. The optimized mass spectrometric condition was as follows: ion spray voltage, 5500 V; collision gas, 6 psi; curtain gas, 20 psi; ion source gas 1 (GS1), 45 psi; ion source gas 2 (GS2), 45 psi; temperature, 450 °C. The multiple reaction monitoring (MRM) transitions of DNJ, FGM, DAB, and IS were m/z 164.0→110.1 (declustering potential (DP) 50 V, collision energy (CE) 22 V, collision cell exit potential (CXP) 10 V), 148.0→112.1 (DP 66 V, CE 21 V, CXP 10 V), 134.0→98.0 (DP 60 V, CE 20 V, CXP 10 V) and 208.0→146.1 (DP 50 V, CE 27 V, CXP 10 V), respectively.

[3] = Sprague-Dawley, iv, SZ–A 4 mg/kg i.v.
[4] = Sprague-Dawley, iv, purified DNJ 1.5 mg/kg i.v.
[5] = Sprague-Dawley, po, SZ–A 40 mg/kg p.o.
[6] = Sprague-Dawley, po, SZ–A 200 mg/kg p.o.
[7] = Sprague-Dawley, po, SZ–A 1000 mg/kg p.o.
[8] = Sprague-Dawley, po, purified DNJ 15 mg/kg p.o.

In the case of `OC[C@H]1NC[C@H](O)[C@@H](O)[C@@H]1O` [DNJ, 1-deoxynojirimycin], the dose excreted ([1]; bile, po, within 32 h, read-out: recovery in bile (% of dose)) is reported as 0.29%, the “cumulative excretion into feces (% of dose)” value ([1]; over a 24 h period, n = 5) is reported as 43.97% and the “cumulative excretion into urine (% of dose)” value ([1]; over a 24 h period, n = 5) is reported as 65.32%. The AUC(0-inf) [2, 3] was 1400 ± 175 ng·h/mL, the AUC(0-t) [2, 3] was 1400 ± 174 ng·h/mL and the Tmax [2, 3] was 1.98 min. It also gave a half-life [2, 3] of 17.4 ± 4.8 min, a clearance [2, 3] of 18.1 mL/min/kg and an MRT last [2, 3] of 48 ± 30 min. For the same compound, the MRT inf [2, 3] was 49.2 ± 30.6 min, the Vd ([2]; Sprague-Dawley, iv, SZ–A 4 mg/kg i.v., read-out: Vd) was 0.453 ± 0.13 L/kg and the AUC(0-inf) [2, 4] was 1140 ± 108 ng·h/mL. It also gave an AUC(0-t) [2, 4] of 1130 ± 108 ng·h/mL, a Cmax [2, 4] of 4520 ± 576 ng/mL and a Tmax [2, 4] of 1.8 min. The half-life [2, 4] was 15 ± 3 min, the clearance [2, 4] was 22.2 mL/min/kg and the MRT last [2, 4] was 28.8 ± 4.8 min. It also gave an MRT inf [2, 4] of 30 ± 4.8 min, a Vd ([2]; Sprague-Dawley, iv, purified DNJ 1.5 mg/kg i.v., read-out: Vd) of 0.486 ± 0.0854 L/kg and a bioavailability ([2]; Sprague-Dawley, po, rat, SZ–A 40 mg/kg p.o. vs SZ–A 4 mg/kg i.v.) of 72.4%. For the same compound, the bioavailability ([2]; Sprague-Dawley, po, rat, SZ–A 200 mg/kg p.o. vs SZ–A 4 mg/kg i.v.) was 38.6%, the bioavailability ([2]; Sprague-Dawley, po, rat, SZ–A 1000 mg/kg p.o. vs SZ–A 4 mg/kg i.v.) was 33.3% and the bioavailability ([2]; Sprague-Dawley, po, rat, purified DNJ 15 mg/kg p.o. vs DNJ 1.5 mg/kg i.v.) was 59.4%. The AUC(0-inf) [2, 5] was 10200 ng·h/mL, the AUC(0-t) [2, 5] was 10100 ng·h/mL and the Cmax [2, 5] was 6370 ± 1120 ng/mL. The Tmax [2, 5] was 40.2 ± 17.4 min, the half-life [2, 5] was 78 ± 15 min and the MRT last [2, 5] was 103 ± 40.2 min. The MRT inf [2, 5] was 107 ± 41.4 min, the AUC(0-inf) [2, 6] was 27000 ng·h/mL and the AUC(0-t) [2, 6] was 27000 ng·h/mL. For the same compound, the Cmax [2, 6] was 10500 ng/mL, the Tmax [2, 6] was 40.2 ± 12 min and the half-life [2, 6] was 127 ± 28.2 min. For the same compound, the MRT last [2, 6] was 158 ± 28.8 min, the MRT inf [2, 6] was 163 ± 29.4 min and the AUC(0-inf) [2, 7] was 117000 ng·h/mL. For the same compound, the AUC(0-t) [2, 7] was 116000 ng·h/mL, the Cmax [2, 7] was 25100 ng/mL and the Tmax [2, 7] was 25.8 ± 5.4 min. For the same compound, the half-life [2, 7] was 211 ± 51 min, the MRT last [2, 7] was 307 ± 88.8 min and the MRT inf [2, 7] was 315 ± 91.8 min. It also gave an AUC(0-t) [2, 8] of 6730 ± 1150 ng·h/mL, a Cmax [2, 8] of 4860 ± 1120 ng/mL and a Tmax [2, 8] of 40.2 ± 17.4 min. The half-life [2, 8] was 52.8 ± 8.4 min, the MRT last [2, 8] was 106 ± 15 min and the MRT inf [2, 8] was 111 ± 12.6 min. For the same compound, the CLz ([2]; SZ–A 40 mg/kg p.o.) was 25.013 ± 3.258 mL/min/kg, the Vd ([2]; SZ–A 40 mg/kg p.o.) was 2.8301 ± 0.7411 L/kg and the CLz ([2]; SZ–A 200 mg/kg p.o.) was 47.062 ± 6.693 mL/min/kg. The Vd ([2]; SZ–A 200 mg/kg p.o.) was 8.6178 ± 2.3175 L/kg, the CLz ([2]; SZ–A 1000 mg/kg p.o.) was 54.045 ± 4.968 mL/min/kg and the Vd ([2]; SZ–A 1000 mg/kg p.o.) was 16,468.3 ± 4217.0 mL/kg. For the same compound, the CLz ([2]; purified DNJ 15 mg/kg p.o.) was 37.693 ± 6.373 mL/min/kg, the “time to reach maximum plasma concentration (Cmax)” value ([2]; rat, after oral administration of SZ–A (40, 200, 1000 mg/kg), upper bound over doses) was at most 0.67 h and the “average AUC of DNJ in the SZ–A group relative to the DNJ group” value ([2]; rat, intravenous injection, SZ–A 4 mg/kg vs purified DNJ 1.5 mg/kg) was 1.2 fold. The “average AUC of DNJ in the SZ–A group relative to the DNJ group” value ([2]; rat, oral administration, SZ–A 40 mg/kg vs purified DNJ 15 mg/kg) was 1.5 fold.
